What was measured:
Format in all cases: in vivo
[1] = test system: Amaranthus retoflexus (AMARE); test: Post-emergence herbicide test, glasshouse, percentage damage; details: 1000 g/ha, evaluated after 13 days
Summary of the method: (§1)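 Damage was rated 13 days after spraying on a five-point scale (1=0-20% to 5=81-100%). The compound was applied at 500 g/ha unless stated otherwise, in acetone/water 50:50 plus 0.5% Tween 20, on day 1 (pre-emergence) or day 8 (post-emergence) after sowing. Plants were kept under glasshouse conditions of 24/16° C day/night and 14 h light.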

[2] = test system: Echinochloa crus-galli (ECHCG); test: as above; details: 1000 g/ha, evaluated after 13 days
Summary of the method: as §1

[3] = test system: Ipomoea hederacea (IPOHE); test: as above; details: 1000 g/ha, evaluated after 13 days
Summary of the method: as §1

Lolium perenne (LOLPE) [4] = test: as above; details: 1000 g/ha, evaluated after 13 days
Summary of the method: as §1

Setaria faberi (SETFA) [5] = test: as above; details: 1000 g/ha, evaluated after 13 days
Summary of the method: as §1

Solanum nigrum (SOLNI) [6] = test: as above; details: 1000 g/ha, evaluated after 13 days
Summary of the method: as §1

[7] = test system: Amaranthus retoflexus (AMARE); test: Pre-emergence herbicide test, glasshouse, percentage damage; details: rate 1000 g/ha, evaluated after 13 days
Summary of the method: as §1

[8] = test system: Echinochloa crus-galli (ECHCG); test: as above; details: rate 1000 g/ha, evaluated after 13 days
Summary of the method: as §1

[9] = test system: Ipomoea hederacea (IPOHE); test: as above; details: rate 1000 g/ha, evaluated after 13 days
Summary of the method: as §1

Lolium perenne (LOLPE) [10] = test: as above; details: rate 1000 g/ha, evaluated after 13 days
Summary of the method: as §1

Setaria faberi (SETFA) [11] = test: as above; details: rate 1000 g/ha, evaluated after 13 days
Summary of the method: as §1

Solanum nigrum (SOLNI) [12] = test: as above; details: rate 1000 g/ha, evaluated after 13 days
Summary of the method: as §1

Row | Compound | percentage damage caused to the plant, AMARE [1] | percentage damage caused to the plant, ECHCG [2] | percentage damage caused to the plant, IPOHE [3] | percentage damage caused to the plant, LOLPE (Lolium perenne (LOLPE) [4]) | percentage damage caused to the plant, SETFA (Setaria faberi (SETFA) [5]) | percentage damage caused to the plant, SOLNI (Solanum nigrum (SOLNI) [6]) | Pre-emergence Test AMARE percentage damage (five point scale) [7] | Pre-emergence Test ECHCG percentage damage (five point scale) [8] | Pre-emergence Test IPOHE percentage damage (five point scale) [9] | Pre-emergence Test LOLPE percentage damage (five point scale) (Lolium perenne (LOLPE) [10]) | Pre-emergence Test SETFA percentage damage (five point scale) (Setaria faberi (SETFA) [11]) | Pre-emergence Test SOLNI percentage damage (five point scale) (Solanum nigrum (SOLNI) [12])
1 | N#Cc1cccnc1Oc1cccc(Br)c1-c1cc(C(F)F)no1 [Compound A107] | 5 (5=81-100%) | 4 (4=61-80%) | 4 (4=61-80%) | 3 (3=41-60%) | 5 (5=81-100%) | 5 (5=81-100%) | 5 (5=81-100%) | 4 (4=61-80%) | 3 (3=41-60%) | 2 (2=21-40%) | 5 (5=81-100%) | 2 (2=21-40%)
2 | O=[N+]([O-])c1ccc(Oc2cccc(Cl)c2-c2cc(C(F)F)no2)nc1 [Compound A108] | 5 (5=81-100%) | 4 (4=61-80%) | 3 (3=41-60%) | 4 (4=61-80%) | 4 (4=61-80%) | 4 (4=61-80%) | 4 (4=61-80%) | 5 (5=81-100%) | 1 (1=0-20%) | 5 (5=81-100%) | 5 (5=81-100%) | 4 (4=61-80%)
3 | FC(F)c1cc(-c2c(Cl)cccc2Oc2ncc(Cl)cc2Cl)on1 [Compound A109] | 5 (5=81-100%) | 4 (4=61-80%) | 4 (4=61-80%) | 3 (3=41-60%) | 5 (5=81-100%) | 5 (5=81-100%) | 4 (4=61-80%) | 2 (2=21-40%) | 1 (1=0-20%) | 2 (2=21-40%) | 4 (4=61-80%) | 3 (3=41-60%)
4 | FC(F)c1cc(-c2c(Cl)cccc2Oc2ccc(C(F)(F)F)cn2)on1 [Compound A110] | 5 (5=81-100%) | 4 (4=61-80%) | 4 (4=61-80%) | 4 (4=61-80%) | 5 (5=81-100%) | 5 (5=81-100%) | 5 (5=81-100%) | 4 (4=61-80%) | 4 (4=61-80%) | 4 (4=61-80%) | 5 (5=81-100%) | 4 (4=61-80%)
5 | Fc1cccc(Oc2cccc(Cl)c2-c2cc(C(F)F)no2)n1 [Compound A111] | 5 (5=81-100%) | 4 (4=61-80%) | 4 (4=61-80%) | 4 (4=61-80%) | 5 (5=81-100%) | 5 (5=81-100%) | 5 (5=81-100%) | 5 (5=81-100%) | 1 (1=0-20%) | 4 (4=61-80%) | 5 (5=81-100%) | 4 (4=61-80%)
6 | FC(F)c1cc(-c2c(Cl)cccc2Oc2cc(C(F)(F)F)ccn2)on1 [Compound A112] | 4 (4=61-80%) | 3 (3=41-60%) | 3 (3=41-60%) | 3 (3=41-60%) | 4 (4=61-80%) | 4 (4=61-80%) | 5 (5=81-100%) | 4 (4=61-80%) | 1 (1=0-20%) | 3 (3=41-60%) | 5 (5=81-100%) | 2 (2=21-40%)

Reference: patent US12227495B2, “Herbicidal compounds” (SYNGENTA CROP PROTECTION AG, priority 2018, dated 2025)
